Test results published in patent publication EP0469010B1, “COSMETIC COMPOSITION” (priority 1989, dated 1990).
Where a name gives a salt, the structure may show the parent alone.

Experiments:
Format in all cases: in vivo, human
[1] = tested on: very bad hair condition and underlying psoriasis; test: Clinical pilot study of topical sodium sucrose sulfate in alopecia: bad hair condition with psoriasis; parameters: key: very good in cases of definite cosmetic benefit; good in cases of significant regrowth of new hair, but not to an extend that is cosmetically apparent at distance; no effect in cases of no or only marginal regrowth of hair; conditions: one person, treated for 9 months, 3% solution topically
Experimental: (§1) During a 11 month period (April 1989 to March 1990), a total of 50 patients participated in a pilot study, evaluating the effect of the sodium salt of sucrose sulfate administered topically for the treatment of alopecia.
(§2) The test preparation was a 3% solution of Na-sucrose sulfate in a vehicle of 50% water/25% ethanol/25% propylene glycol (w/w), dispensed in 35 ml bottles with a sponge for topical administration on the scalp. The test preparation was applied morning and evening on the scalp, preferably on areas of partial or total alopecia. In average the patients have been using one bottle per month.
(§3) All patients were recruited by one dermatologist, and the effect of treatment was evaluated clinically by the same investigator, at monthly clinic visits.
(§4) The clinical effect was classified as very good in cases of definite cosmetic benefit, as good in cases of significant regrowth of new hair, but not to an extend that is cosmetically apparent at distance, and as no effect in cases of no or only marginal regrowth of hair.
One person with very bad hair condition and underlying psoriasis was treated for 9 months and a very good effect on the test drug was obtained.

underlying discoid LE = test: Clinical pilot study of topical sodium sucrose sulfate in alopecia: underlying discoid LE; parameters: key: very good in cases of definite cosmetic benefit; good in cases of significant regrowth of new hair, but not to an extend that is cosmetically apparent at distance; no effect in cases of no or only marginal regrowth of hair; conditions: 2 female patients, treated 2 and 4 months; regrowth except for the very center of the lesion
Experimental: as §1, §2, §3, §4
2 female patients with underlying discoid LE were successfully treated for 2 and 4 months, respectively, with a very good effect comprising regrowth of hair except for the very center of the lesion.

alopecia areata = test: Clinical pilot study of topical sodium sucrose sulfate in alopecia: alopecia areata; parameters: key: very good in cases of definite cosmetic benefit; good in cases of significant regrowth of new hair, but not to an extend that is cosmetically apparent at distance; no effect in cases of no or only marginal regrowth of hair; conditions: 5 female patients aged 39 to 46 years, treated 2 to 9 months, 3% solution topically
Experimental: as §1, §2, §3, §4
5 Female patients with alopecia areata aged from 39 years to 46 years were treated for periods from 2 to 9 months, the treatment showing a very good effect.

Ludwig type alopecia = test: Clinical pilot study of topical sodium sucrose sulfate in alopecia: Ludwig type alopecia in females; conditions: 5 females aged 20-49 years, treated 6-8 months, 3% solution topically
Experimental: as §2, §3, §4
5 Females aged from 20-49 years with Ludwig type alopecia were treated with the test drug for 6-8 months.

Male androgenic alopecia [2] = test: Clinical pilot study of topical sodium sucrose sulfate in alopecia: male androgenic alopecia; parameters: key to clinical effect: very good in cases of definite cosmetic benefit; good in cases of significant regrowth of new hair, but not to an extend that is cosmetically apparent at distance; no effect in cases of no or only marginal regrowth of hair; conditions: for clinical effect: 4 patients; for Clinical effect Good (number of patients) / Clinical effect No effect (number of patients) / Clinical effect Very good (number of patients): 3% solution topically morning and evening, about 3 to 9 months
Experimental: During a 11 month period (April 1989 to March 1990), a total of 50 patients participated in a pilot study, evaluating the effect of the sodium salt of sucrose sulfate administered topically for the treatment of alopecia. The test preparation was a 3% solution of Na-sucrose sulfate in a vehicle of 50% water/25% ethanol/25% propylene glycol (w/w), dispensed in 35 ml bottles with a sponge for topical administration on the scalp. The test preparation was applied morning and evening on the scalp, preferably on areas of partial or total alopecia. In average the patients have been using one bottle per month. All patients were recruited by one dermatologist, and the effect of treatment was evaluated clinically by the same investigator, at monthly clinic visits. The clinical effect was classified as very good in cases of definite cosmetic benefit, as good in cases of significant regrowth of new hair, but not to an extend that is cosmetically apparent at distance, and as no effect in cases of no or only marginal regrowth of hair. Male androgenic alopecia was the clinical diagnosis in 35 patients, their age ranging from 17 years to 50 years. Period of treatment was about 3 months in 15 case, about 6 months in 10 cases, and about 9 months in 10 cases.

[3] = tested on: hair loss secondary to anti-cancer treatment; test: Pilot study of sodium sucrose sulfate, prophylactic and therapeutic, in hair loss secondary to anti-cancer treatment
From the text: The test preparation containing sodium sucrose sulfate from Example 11 was used both prophylactically and therapeutically in a few patients undergoing radiation and/or cytostatic anti-cancer treatment. One person started the treatment with the test preparation immediately after the anti-cancer treatment was instituted, applying the test preparation twice daily on eyebrows and eyelashes on the right side, and the left side served as untreated control. The treatment lasted four weeks. […] Another four females - also on anti-cancer treatment - used the test preparation twice daily, topically on the scalp after the hair was lost.

[4] = tested on: subtotal or total alopecia, with underlying atopic dermatitis; test: Clinical pilot study of topical sodium sucrose sulfate in alopecia: subtotal or total alopecia; conditions: 3% solution topically
Experimental: as §1, §2, §3, §4
2 Patients suffered from subtotal or total alopecia, with underlying atopic dermatitis.

total alopecia = test: Clinical pilot study of topical micronized sucralfate in alopecia: total alopecia; conditions: one patient, total alopecia for 20 years, 5% micronized sucralfate twice daily for 6 weeks
From the text: (§5) A composition containing micronized sucralfate (<5 µm, Giulini Chemie, Germany) 5%, ethanol 25%, propylene glycol 25%, and distilled water 45%, was used in two daily applications on the scalp, the composition being dispensed in a bottle with sponge applicator. The average consumption of the test preparation in individual patients was about one bottle per month. […] The effects were lasting after stopping the treatment for about 4 months.

Male androgenic alopecia [5] = test: Clinical pilot study of topical micronized sucralfate in alopecia: male androgenic alopecia
From the text: as §5

[6] = tested on: common male-pattern baldness; test: Treatment with sucralfate cream of common male-pattern baldness (single case, Example 14); conditions: 10% w/w sucralfate preparation, two daily topical applications, person, after 3-4 weeks
From the text: At the beginning, a "plume" appeared in the area, and after a few days the "plume" began turning into real hairs and 8 days after, there were dozens of real hairs which were indistinguishable from other hairs of the scalp, apart from being shorter and all coloured in the original colour of the hair, in contrast to the existing hair, which was partially greyed.

[7] = age group 17-25 years, 20 patients
[8] = age group 25-40 years, 10 patients
[9] = age group >40 years, 5 patients

O=S(=O)(O)OC[C@H]1O[C@@](COS(=O)(=O)O)(O[C@H]2O[C@H](COS(=O)(=O)O)[C@@H](OS(=O)(=O)O)[C@H](OS(=O)(=O)O)[C@H]2OS(=O)(=O)O)[C@@H](OS(=O)(=O)O)[C@@H]1OS(=O)(=O)O [sodium sucrose sulfate, Sodium sucrose octasulfate]
clinical effect [1]: very good
clinical effect (underlying discoid LE): very good
clinical effect (alopecia areata): very good
number of patients with good effect (Ludwig type alopecia): 3 patients
number of patients with only a marginal effect (Ludwig type alopecia): 2 patients
clinical effect (Male androgenic alopecia [2]; age group 17-25, previously failed on minoxidil, 3% solution topically): no effect
clinical effect (Male androgenic alopecia [2]; age group 25-40, previously failed on minoxidil, 3% solution topically): good
Clinical effect Good (number of patients) (Male androgenic alopecia [2]; [7]): 8
Clinical effect No effect (number of patients) (Male androgenic alopecia [2]; [7]): 4
Clinical effect Very good (number of patients) (Male androgenic alopecia [2]; [7]): 8
Clinical effect Good (number of patients) (Male androgenic alopecia [2]; [8]): 2
Clinical effect No effect (number of patients) (Male androgenic alopecia [2]; [8]): 2
Clinical effect Very good (number of patients) (Male androgenic alopecia [2]; [8]): 4
Clinical effect Good (number of patients) (Male androgenic alopecia [2]; [9]): 2
Clinical effect No effect (number of patients) (Male androgenic alopecia [2]; [9]): 2
time of treatment until hair-growing effect apparent (Male androgenic alopecia [2]; patients responding to the treatment, whole pilot study, typical value): ~1 month
effect in comparison to topically applied minoxidil (Regain®) (Male androgenic alopecia [2]; whole pilot study, 3% solution topically): markedly better effect
regrowth of hair after loss ([3]; four females on anti-cancer treatment, twice daily topically on the scalp after the hair was lost): much faster regrowth of hair than normally
prevention of loss of eyebrows and eyelashes ([3]; one on anti-cancer treatment, twice daily on right side for four weeks, left side untreated control (lost)): eyebrows and eyelashes remained
effect of treatment ([4]; person with 2-3 years of alopecia, treatment for 8 months): only little effect
regrowth of hair ([4]; person, bald for 20 years, treatment for 10 months): complete regrowth of hair

sucrose octakis(hydrogen sulfate) aluminium complex [sucralfate]
regrowth of hair (total alopecia): dense regrowth of fine short terminal hairs all over the scalp
regrowth of hair (Male androgenic alopecia [5]; one person, Hamilton grade 3, 5% micronized sucralfate twice daily for two months): dense regrowth of small terminal hairs
duration of effects after stopping the treatment (Male androgenic alopecia [5]; one person, Hamilton grade 3, after two months of treatment): about 4 months
regrowth of hair (Male androgenic alopecia [5]; six male patients aged 30 to 48 years, Hamilton grade 3 and 4, 5% micronized sucralfate twice daily for 3 to 6 months, all six cases): definite regrowth of terminal hairs
time of treatment until effect seen (Male androgenic alopecia [5]; six male patients, Hamilton grade 3 and 4, typical value): 6-8 weeks
appearance of hair [6]: appearance of hair in the otherwise bald lateral-frontal areas
